Measured values taken from patent publication US20030055106A1, “Therapeutic uses of peroxometallic compounds” (priority 1999, published 2003).

What was measured:
[1] = system: Human umbilical vein endothelial cells (HUVECs); conditions: read-out: approximate IC50, endothelial cell proliferation; 96 hours in culture
Experimental: Each experiment was performed in triplicate. The culture medium was changed daily.

HUVECs = experiment: HUVEC differentiation and organization into tubular-like structures in fibrin matrix; format: cell-based, Human; conditions: 21 days in culture
Experimental: Alternatively, HUVECs cultured in a fibrin matrix can form 3-dimensional tubular-like structures in the presence of serum (103). This assay was performed in the presence of either bpV(phen), bpv(pic) or vanadate to assess the influence of each one of these compounds on HUVEC differentiation and organization (Table 1). HUVECs were seeded on the bottom of gelatin-coated wells at high density to provide a confluent monolayer at 48 hours.
Then, 50 000 HUVECs/ml were embedded in fibrinogen solution prior to polymerization. The fibrin matrix was covered with culture medium containing the molecule to be tested, while culture medium without any of these molecules served as controls. Cell behavior was observed periodically by phase contrast microscopy.

ETs (ET-1, ET-2, ET-3) = experiment: Plasma endothelin levels after insulin (RIA); format: in vivo; conditions: rats, bpV(phen) 0.5 mg/100 g b.w. i.p. 16 hours before insulin
Experimental: The data presented in Table III show the effect of bpV(phen) on the plasmatic levels of ETs. […] Two minutes following insulin administration (1.5 μg/100 g b.w, or vehicle), the plasma levels of ETs were determined. Insulin administration induced a strong increase of seric ET concentration (54). […] In addition, bpV(phen) decreased the insulin-stimulated levels of plasmatic ETs below control levels. […] ETs (ET-1, ET-2, ET-3) were measured by RIA (Amersham kit RPA 555) after lyophilization and extraction on C2 columns (500 mg). Results are mean ±SEM, p<0.0209, control (n=4) vs Insulin, pV (n=3).

[2] = system: vitelline membrane of chick embryos; experiment: Embryonic vascularization test (EVT) ex ovo; format: in vivo
Source text: FIG. 2: A and B show an anti-angiogenic response to bpV(phen), orthovanadate (Van) and protamine (Prot) using a vascularization test on the vitelline membrane of chick embryos. Each point represents a minimum of 15 embryos (15 to 28).
The normal development of a chick embryo involves the formation of an external vascular system which is located in the vitelline membrane and which carries nutrients from the vitellus (yolk of the egg) to the developing embryo. When placed onto the vitelline membrane, anti-angiogenic substances can inhibit blood vessel development in the vitelline membrane. To facilitate access to the vitelline membrane, chick embryos were transferred to a sterile culture box (Petri dish) and placed in a humidity- and temperature-controlled incubator. Embryos could then develop in this ex ovo condition for several days.
An aliquot of the tested compound was mixed with a methylcellulose solution and allowed to air-dry into thin discs. Methylcellulose forms an inert matrix from which the tested compound can diffuse slowly. Methylcellulose discs containing the tested compound were placed on the external border of the vascular perimeter of the vitelline membrane where the angiogenic process was still active.
The effects of the discs containing the tested compound on proximal vascular development were, in all cases, compared with those of discs containing control buffer. The discs were placed on the embryos' vitelline membrane on Day 0 or Day 1 of the ex ovo growth process; at this point, only beginnings of the main blood vessels are invading the vitellus. The embryos were then put in culture conditions until vascularization was assessed (approximately 24 h). Control buffer- and compound-containing discs were in all cases added simultaneously on the vitelline membrane of the same embryo. Both discs were arranged in a symmetrical fashion with respect to the cephalo-caudal axis of the embryo in order to minimize inter-individual variations when comparing the tested compounds with controls.
[…] After one day in culture, the level of vascularization in the area covered by the discs was graded by a pair of scientists in the usual blind fashion. To facilitate the location of the discs, black O-rings were placed around them just after their placement on the vitelline membrane. The evaluation scale for the EVTs was based on two different scoring systems.
Blood vessel formation was assessed in a blind fashion. The areas of the vitelline membranes that lay beneath the methylcellulose discs were scored for the degree of vascularization, using two scoring systems (“N/+” or “1-2-3”). The following selection criteria were used:
A score of “N” for “Normal” was attributed when all the following conditions were met:
Blood vessels in the evaluated area grew along their path with no abnormal deviation. Collateral branching density was normal and the growth path of the lateral branches was also normal.
A score of “+” was attributed when at least one of the following conditions was met:
1-2-3 Grading Scale System:
A score of 3 was attributed when the following conditions were met:
A score of 2 was attributed when at least one of the following conditions was met:
A score of 1 was attributed when at least one of the following conditions was met:
A score of 3 meant that blood vessel development was normal whereas a score of 1 indicated the greatest degree of angiostatic activity.

O.O.O.OO.OO.[K+].[OH-].[V].c1cnc2c(c1)ccc1cccnc12 [bpV(phen), potassium bisperoxo(1,10-phenanthroline)oxovanadate]
IC50 [1]: ~2000 nM
structures observed by phase contrast microscopy (HUVECs; 1 μM): cord-like structures (or cords), tube-like structures (or tubes) and stellate structures (or Stell.struct.) were observed
structures observed by phase contrast microscopy (HUVECs; 2 and 3.5 μM): fragmented cord-like structures were apparent
insulin-induced increase of seric ET concentration (ETs (ET-1, ET-2, ET-3)): completely abolished
Plasma endothelins (ETs (ET-1, ET-2, ET-3); two minutes after insulin 1.5 μg/100 g b.w., mean ±SEM, n=3): 77.68 ± 3.08 pg/mL
Anti-angio.activity 1 to 3 (1: no angiogenesis; 3: normal angiogenesis) ([2]; 0.001 μg, Assay 1): 2.7
Anti-angio.activity % (proportion of embryos showing an anti-angiogenic response) ([2]; 0.001 μg, Assay 1): 12%
Anti-angio.activity 1 to 3 (1: no angiogenesis; 3: normal angiogenesis) ([2]; 0.001 μg, Assay 2): 2.4
Anti-angio.activity % (proportion of embryos showing an anti-angiogenic response) ([2]; 0.001 μg, Assay 2): 20%
Anti-angio.activity 1 to 3 (1: no angiogenesis; 3: normal angiogenesis) ([2]; 0.001 μg, Assay 5): 2.6
Anti-angio.activity % (proportion of embryos showing an anti-angiogenic response) ([2]; 0.001 μg, Assay 5): 16%
Anti-angio.activity 1 to 3 (1: no angiogenesis; 3: normal angiogenesis) ([2]; 0.01 μg, Assay 1): 2.3
Anti-angio.activity % (proportion of embryos showing an anti-angiogenic response) ([2]; 0.01 μg, Assay 1): 31%
Anti-angio.activity 1 to 3 (1: no angiogenesis; 3: normal angiogenesis) ([2]; 0.01 μg, Assay 2): 2.5
Anti-angio.activity % (proportion of embryos showing an anti-angiogenic response) ([2]; 0.01 μg, Assay 2): 19%
Anti-angio.activity 1 to 3 (1: no angiogenesis; 3: normal angiogenesis) ([2]; 0.01 μg, Assay 5): 2.4
Anti-angio.activity % (proportion of embryos showing an anti-angiogenic response) ([2]; 0.01 μg, Assay 5): 25%
Anti-angio.activity 1 to 3 (1: no angiogenesis; 3: normal angiogenesis) ([2]; 0.1 μg, Assay 1): 1.8
Anti-angio.activity % (proportion of embryos showing an anti-angiogenic response) ([2]; 0.1 μg, Assay 1): 61%
Anti-angio.activity 1 to 3 (1: no angiogenesis; 3: normal angiogenesis) ([2]; 0.1 μg, Assay 2): 2.2
Anti-angio.activity % (proportion of embryos showing an anti-angiogenic response) ([2]; 0.1 μg, Assay 2): 45%
Anti-angio.activity 1 to 3 (1: no angiogenesis; 3: normal angiogenesis) ([2]; 0.1 μg, Assay 5): 2.0
Anti-angio.activity % (proportion of embryos showing an anti-angiogenic response) ([2]; 0.1 μg, Assay 5): 53%
Anti-angio.activity 1 to 3 (1: no angiogenesis; 3: normal angiogenesis) ([2]; 1 μg, Assay 1): 1.6
Anti-angio.activity % (proportion of embryos showing an anti-angiogenic response) ([2]; 1 μg, Assay 1): 86%
Anti-angio.activity 1 to 3 (1: no angiogenesis; 3: normal angiogenesis) ([2]; 1 μg, Assay 2): 1.1
Anti-angio.activity % (proportion of embryos showing an anti-angiogenic response) ([2]; 1 μg, Assay 2): 100%
Anti-angio.activity 1 to 3 (1: no angiogenesis; 3: normal angiogenesis) ([2]; 1 μg, Assay 4): 1.0
Anti-angio.activity % (proportion of embryos showing an anti-angiogenic response) ([2]; 1 μg, Assay 4): 96%
Anti-angio.activity 1 to 3 (1: no angiogenesis; 3: normal angiogenesis) ([2]; 1 μg, Assay 5): 1.2
Anti-angio.activity % (proportion of embryos showing an anti-angiogenic response) ([2]; 1 μg, Assay 5): 94%
approximate IC50, neovascularization (regardless of the scoring system) ([2]; per methylcellulose disc): ~0.1 µg
